Laboratory results taken from US20250109127A1, “METHODS OF USE OF PHENOXYPROPYLAMINE COMPOUNDS TO TREAT DEPRESSION” (Minerva Neurosciences, Inc., priority 2013, published 2025).
Where “and” joins values, the source holds several entries; their conditions need not be identical. Identical values can stand only once. Counter-ions that a name gives are not always drawn.

System: 5-HIAA release in the rat prefrontal cortex
Test: Microdialysis: 5-HIAA release in prefrontal cortex after I.P. administration
Type: in vivo
Conditions: for 5-HIAA release, individual animals / 5-HIAA release, MEAN: 0.3 mg/kg I.P.; for 5-HIAA release, individual animals: one column per animal R#11,12,18,23,29,30,17,24, hydrochloride; for 5-HIAA release, MEAN: n = 8; for levels of 5-HIAA compared to the citalopram treated group (significant): SON-117 0.1 mg/kg
Procedure: The aim of the study was to evaluate, using microdialysis, the effects of an intraperitoneal (I.P.) administration in rats of three different doses of SON-117 on dopamine and its metabolites, serotonin and its metabolite (5-HIAA), and norepinephrine levels in prefrontal cortex.
Thirty-two adult male Wistar rats were used for the whole study (4 groups of eight animals planned for the study, Table 1).
Surgery was performed on rats weighing about 300 g at the beginning of the experiments. Rats were anaesthetized with Ketamine (50 mg/kg) & Xylazine (15 mg/kg) by intramuscular administration. The animals were placed in a stereotaxic apparatus in the flat-skull position at a constant setting of −3.3 mm between ear bars and the incisor bar. The animals were treated with a local anesthesic (xylocaine 1%, Astra Zeneca) and an analgesic (Temgesic, from Schering Plough, 0.05 mg/kg, s.c.). A rostrocaudal midline incision was made with a lancet to expose the dorsal skull surface. The “stereotaxic zero” was defined by the Bregma in accordance with Paxinos and Watson's atlas (1986). A hole was drilled in the skull with a drill and the meninges were pierced with a sterile needle to implant a CMA12 guide cannula which later received the dialysis probe.
Coordinates used for implanting guide cannula in prefrontal cortex from Bregma were anteroposterior 3.7 mm, mediolateral 0.8 mm, and dorsoventral −2 mm (top of the probe was at −5 mm). The guide cannula was fixed to the skull with two stainless steel screws (1.88 mm outside diameter) anchored. An application of dental cement was added. A plastic collar allowed each animal to be tethered to a Swivel assembly of the CMA 120 awake animal system. Following surgery, rats were kept in individual cages and allowed to recover for a minimum of 3-5 days before the experimentation. The rats were handled and put in plastic bowl for 10 min at least every day to habituate the animals to their new environment for the dialysis. An I.P. administration with saline was also performed every day.
Dialysis probes (CMA12/3 mm, membrane, 20 kD cut-off, Carnegie Medicine, Stockholm, Sweden), were carefully washed before inserting into the guide cannula. The wash was performed with the artificial cerebrospinal fluid (aCSF) medium (NaCl 147 mM, KCl 2.7 mM, CaCl2 1.2 mM, MgCl2 0.85 mM) at room temperature. The dialysis system was then equilibrated at 20° C. at a perfusion rate of 1 μl/min with a Carnegie pump (CMA100). All catheters (FEP tubing, internal volume of 1.2 μl/10 cm, and tubing adaptors) used for microdialysis were treated in the same conditions.
The probes duly prepared were inserted into the guide cannula and the CMA120 Swivel assembly secured to the animal using a plastic collar. Flow through the dialysis probe with aCSF was maintained at a rate of 1 μl/min during the whole experimentation. The first four fractions (corresponding to 2 hours) were discarded to avoid the effects of parenchymal disturbance and to ensure that an approximate steady-state level was reached. Fractions were then collected over a period of 8.5 h during which time the animals remained quiet. The dialysates were automatically collected with an autosampler (microfraction collector CMA 140, Carnegie Medicin) and stored at −80° C. until analysis. […] Perfusion was then maintained for 7 hours with aCSF. The dialysates (30 μl) were collected into 300 μl vials, transferred into dry ice and then kept frozen (−80° C.) until analysis. Frozen samples were shipped to a partner for analysis. At the end of the microdialysis study, a PBS with colored ink was perfused through the probe in order to visualize the dialyzed area.
Catecholamine assay: Concentrations of dopamine, DOPAC, HVA, 5-HIAA, 5-HT, and norepinephrin were determined for each sample by HPLC coupled with electrochemical detection.

For `Cc1nnc(-c2cc3c(OC[C@@H](O)CN4CCC(c5ccc(Cl)c(Cl)c5)CC4)cccc3o2)o1` [SON-117, (S)-1-(4-(3,4-dichlorophenyl)piperidino)-3-(2-(5-methyl-1,3,4-oxadiazol-2-yl)benzo(b)furan-4-yloxy)-2-propanol hydrochloride], the “5-HIAA release, individual animals” value (T2 h-T2 h 30) was 82.87 % of respective basal and 87.22 % of respective basal and 100.63 % of respective basal and 93.66 % of respective basal and 63.67 % of respective basal and 70.87 % of respective basal and 109.73 % of respective basal and 96.64 % of respective basal, the “5-HIAA release, MEAN” value (T3 h 30-T4 h) was 86.84 % of respective basal and the “5-HIAA release, individual animals” value (T3 h 30-T4 h) was 84.27 % of respective basal and 78.82 % of respective basal and 113.26 % of respective basal and 50.70 % of respective basal and 79.10 % of respective basal and 97.98 % of respective basal and 103.77 % of respective basal. The “5-HIAA release, MEAN” value (T3 h-T3 h 30) was 85.23 % of respective basal, the “5-HIAA release, individual animals” value (T3 h-T3 h 30) was 91.97 % of respective basal and 87.81 % of respective basal and 101.16 % of respective basal and 49.70 % of respective basal and 76.51 % of respective basal and 101.56 % of respective basal and 87.92 % of respective basal and the “5-HIAA release, MEAN” value (T4 h 30-T5 h) was 79.56 % of respective basal. The “5-HIAA release, individual animals” value (T4 h 30-T5 h) was 106.09 % of respective basal and 92.34 % of respective basal and 55.38 % of respective basal and 93.00 % of respective basal and 34.98 % of respective basal and 60.78 % of respective basal and 97.49 % of respective basal and 96.40 % of respective basal, the “5-HIAA release, MEAN” value (T4 h-T4 h 30) was 83.02 % of respective basal and the “5-HIAA release, individual animals” value (T4 h-T4 h 30) was 101.39 % of respective basal and 87.58 % of respective basal and 68.33 % of respective basal and 105.89 % of respective basal and 46.22 % of respective basal and 58.28 % of respective basal and 100.16 % of respective basal and 96.30 % of respective basal. For the same molecule, the “5-HIAA release, MEAN” value (T5 h 30-T6 h) was 76.13 % of respective basal, the “5-HIAA release, individual animals” value (T5 h 30-T6 h) was 99.18 % of respective basal and 83.12 % of respective basal and 47.00 % of respective basal and 91.59 % of respective basal and 31.98 % of respective basal and 58.90 % of respective basal and 95.96 % of respective basal and 101.31 % of respective basal and the “5-HIAA release, MEAN” value (T5 h-T5 h 30) was 70.00 % of respective basal. For the same molecule, the “5-HIAA release, individual animals” value (T5 h-T5 h 30) was 36.17 % of respective basal and 102.81 % of respective basal and 51.02 % of respective basal and 88.56 % of respective basal and 33.58 % of respective basal and 69.56 % of respective basal and 91.58 % of respective basal and 86.71 % of respective basal, the “5-HIAA release, MEAN” value (T6 h 30-T7 h) was 77.53 % of respective basal and the “5-HIAA release, individual animals” value (T6 h 30-T7 h) was 93.10 % of respective basal and 92.17 % of respective basal and 48.56 % of respective basal and 102.17 % of respective basal and 26.99 % of respective basal and 69.28 % of respective basal. The “5-HIAA release, MEAN” value (T6 h-T6 h 30) was 75.56 % of respective basal, the “5-HIAA release, individual animals” value (T6 h-T6 h 30) was 95.37 % of respective basal and 79.54 % of respective basal and 45.32 % of respective basal and 101.94 % of respective basal and 31.32 % of respective basal and 69.73 % of respective basal and 87.93 % of respective basal and 93.33 % of respective basal and the “5-HIAA release, MEAN” value (T-30 min-T0 (before administration)) was 101.34 % of respective basal. The “5-HIAA release, MEAN” value (T-1 h 30-T-1 h (before administration)) was 96.20 % of respective basal, the “5-HIAA release, MEAN” value (T-1 h-T-30 min (before administration)) was 102.47 % of respective basal and the “5-HIAA dialysate levels vs mean pre-administration value” (SON-117 0.1 mg/kg I.P.) was “no statistically significant differences”. The “levels of 5-HIAA compared to the citalopram treated group (significant)” value (at 0.5 h) was “lower”, the “levels of 5-HIAA compared to the citalopram treated group (significant)” value (at 4.5 h, 5 h, 6.5 h) was “higher” and the “5-HIAA concentrations in prefrontal cortex, change” value (SON-117 0.3 mg/kg IP, at 3.5 h and from 4.5 h to 7 h) was “significant and stable slight decrease”. For the same molecule, the “5-HIAA, difference to the citalopram group” value (SON-117 0.3 mg/kg, in function of time) was “no significant difference”.
